Source: patent US10258041B2, “Substituted pyrazolylpyrazole derivative and use of same as herbicide” (KYOYU AGRI CO., LTD., priority 2015, dated 2019)

Assays:
Type in all cases: in vivo
[1] = system: Echinochloa crus-galli; experiment: Paddy herbicidal activity test; conditions: irrigated pot, treated at 3.5 leaf stage of Echinochloa crus-galli, 30 days
Experimental: (§1) Rice paddy soil was filled into a 1/10000 are pot followed by the addition of suitable amounts of water and chemical fertilizer, kneading, seeding with Echinochloa crus-galli, Monochoria vaginalis and Scirpus juncoides and maintaining in an irrigated state at a water depth of 3 cm. Wettable powders of Target Compound (I) shown in Table 1 prepared in compliance with the preparation examples were diluted with a suitable amount of water, rice plants in the 2.0 leaf stage were transplanted during 3.5 leaf stage of Echinochloa crus-galli, and treated by dropping in chemical in the prescribed amount per 10 are using a pipette. After treating for 30 days in a glass greenhouse at an average atmospheric temperature of […], the herbicidal efficacy thereof was investigated. Evaluation of herbicidal efficacy was carried out by comparing growth inhibition rate (%) with an untreated group, while evaluation of chemical damage was carried out by comparing growth inhibition rate (%) with the state of a complete eradication group, and were evaluated at 11 levels indicated below. • 0 (exponent): 0% to less than 10% (growth inhibition rate) • 1: 10% to less than 20% • 2: 20% to less than 30% • 3: 30% to less than 40% • 4: 40% to less than 50% • 5: 50% to less than 60% • 6: 60% to less than 70% • 7: 70% to less than 80% • 8: 80% to less than 90% • 9: 90% to less than 100% • 10: 100%

[2] = system: Monochoria vaginalis; experiment: Paddy herbicidal activity test; conditions: irrigated pot, treated at 3.5 leaf stage of Echinochloa crus-galli, 30 days
Experimental: as §1

[3] = system: Scirpus juncoides; experiment: Paddy herbicidal activity test; conditions: irrigated pot, treated at 3.5 leaf stage of Echinochloa crus-galli, 30 days
Experimental: as §1

[4] = system: Oryza sativa; experiment: Paddy herbicidal activity test, chemical damage to transplanted rice; conditions: rice transplanted in 2.0 leaf stage, 30 days
Experimental: as §1

[5] = system: Amaranthus retroflexus; experiment: Farming soil treatment test; conditions: soil surface spray prior to weed growth, 30 days, 30° C.
Experimental: (§2) Evaluation of herbicidal efficacy was carried out by comparing growth inhibition rate (%) with an untreated group, while evaluation of chemical damage was carried out by comparing growth inhibition rate (%) with the state of a complete eradication group, and were evaluated at 11 levels indicated below. • 0 (exponent): 0% to less than 10% (growth inhibition rate) • 1: 10% to less than 20% • 2: 20% to less than 30% • 3: 30% to less than 40% • 4: 40% to less than 50% • 5: 50% to less than 60% • 6: 60% to less than 70% • 7: 70% to less than 80% • 8: 80% to less than 90% • 9: 90% to less than 100% • 10: 100% Field soil was filled into a 1/6000 are pot followed by seeding with Digitaria ciliaris, Chenopodium album and Amraranthus retroflexus and covering with soil. Wettable powders of compounds of formula (I) shown in Table 1 prepared in compliance with the preparation examples were diluted with water to the prescribed amount of chemical and uniformly sprayed onto each soil surface layer using 100 liters of sprayed water per 10 are prior to weed growth following seeding. After treating for 30 days in a glass greenhouse at an average atmospheric temperature of 30° C., the herbicidal efficacy thereof was investigated. Evaluation of herbicidal efficacy was carried out in the same manner as the above-mentioned Test Example 1,

[6] = system: Chenopodium album; experiment: Farming soil treatment test; conditions: soil surface spray prior to weed growth, 30 days, 30° C.
Experimental: as §2

[7] = system: Digitaria ciliaris; experiment: Farming soil treatment test; conditions: soil surface spray prior to weed growth, 30 days, 30° C.
Experimental: as §2

[8] = system: Amaranthus retroflexus; experiment: Weed foliar treatment test (Test 3); conditions: foliar spray at 1.0 to 2.0 leaf stage of Digitaria ciliaris, 3 weeks, 25° C.
Experimental: (§3) Evaluation of herbicidal efficacy was carried out by comparing growth inhibition rate (%) with an untreated group, while evaluation of chemical damage was carried out by comparing growth inhibition rate (%) with the state of a complete eradication group, and were evaluated at 11 levels indicated below. • 0 (exponent): 0% to less than 10% (growth inhibition rate) • 1: 10% to less than 20% • 2: 20% to less than 30% • 3: 30% to less than 40% • 4: 40% to less than 50% • 5: 50% to less than 60% • 6: 60% to less than 70% • 7: 70% to less than 80% • 8: 80% to less than 90% • 9: 90% to less than 100% • 10: 100% Soil was filled into a 1/6000 are pot followed by seeding with Digitaria ciliaris, Chenopodium album and Amaranthus retroflexus, covering with soil, and cultivating in a glass greenhouse at an average atmospheric temperature of 25° C. Wettable powders of Target Compound (I) shown in Table 1 prepared in compliance with the preparation examples were diluted with water to the prescribed amount of chemical and uniformly sprayed onto the weeds using 150 liters of sprayed water per 10 are when Digitaria ciliaris had grown to the 1.0 to 2.0 leaf stage. After treating for 3 weeks in a glass greenhouse at an average atmospheric temperature of 25° C., the herbicidal efficacy thereof was investigated. Evaluation of herbicidal efficacy was carried out in the same manner as the above-mentioned Test Example 1.

[9] = system: Chenopodium album; experiment: Weed foliar treatment test (Test 3); conditions: foliar spray at 1.0 to 2.0 leaf stage of Digitaria ciliaris, 3 weeks, 25° C.
Experimental: as §3

[10] = system: Digitaria ciliaris; experiment: Weed foliar treatment test (Test 3); conditions: foliar spray at 1.0 to 2.0 leaf stage of Digitaria ciliaris, 3 weeks, 25° C.
Experimental: as §3

[11] = system: Digitaria ciliaris; experiment: Weed foliar treatment test (Test 4, higher leaf stage); conditions: 10 g a.i./10a; foliar spray at 4.0 to 5.0 leaf stage of Digitaria ciliaris (plant height 10 cm to 15 cm); 20 days, 25° C.
Experimental: (§4) Evaluation of herbicidal efficacy was carried out by comparing growth inhibition rate (%) with an untreated group, while evaluation of chemical damage was carried out by comparing growth inhibition rate (%) with the state of a complete eradication group, and were evaluated at 11 levels indicated below. • 0 (exponent): 0% to less than 10% (growth inhibition rate) • 1: 10% to less than 20% • 2: 20% to less than 30% • 3: 30% to less than 40% • 4: 40% to less than 50% • 5: 50% to less than 60% • 6: 60% to less than 70% • 7: 70% to less than 80% • 8: 80% to less than 90% • 9: 90% to less than 100% • 10: 100% Field soil was filled into a 1/4500 are pot followed by seeding with Digitaria ciliaris and Galinsoga parviflora, covering with soil and cultivating in a glass greenhouse at an average atmospheric temperature of 25° C. Wettable powders of Target Compound (I) shown, in Table 1 prepared in compliance with the preparation examples were diluted with water to the prescribed amount of chemical and uniformly sprayed onto the weeds using 100 liters of sprayed water per 10 are when Digitaria ciliaris had grown to the 4.0 to 5.0 leaf stage (plant height: 10 cm to 15 cm). After treating for 20 days in a glass greenhouse at an average atmospheric temperature of 25° C., the herbicidal efficacy thereof was investigated. Evaluation of herbicidal efficacy was carried out in the same manner as the above-mentioned Test Example 1.

[12] = system: Galinsoga parviflora; experiment: as above; conditions: 10 g a.i./10a; foliar spray at 4.0 to 5.0 leaf stage of Digitaria ciliaris; 20 days, 25° C.
Experimental: as §4

Compound	herbicidal efficacy (growth inhibition rate level), Echinochloa crus-galli ([1]; 1 g a.i./10a)	herbicidal efficacy (growth inhibition rate level), Echinochloa crus-galli ([1]; 5 g a.i./10a)	herbicidal efficacy (growth inhibition rate level), Monochoria vaginalis ([2]; 1 g a.i./10a)	herbicidal efficacy (growth inhibition rate level), Monochoria vaginalis ([2]; 5 g a.i./10a)	herbicidal efficacy (growth inhibition rate level), Scirpus juncoides ([3]; 1 g a.i./10a)	herbicidal efficacy (growth inhibition rate level), Scirpus juncoides ([3]; 5 g a.i./10a)	chemical damage (growth inhibition rate level), Oryza sativa ([4]; 1 g a.i./10a)	chemical damage (growth inhibition rate level), Oryza sativa ([4]; 5 g a.i./10a)	herbicidal efficacy (growth inhibition rate level), Amaranthus retroflexus ([5]; 5 g a.i./10a)	herbicidal efficacy (growth inhibition rate level), Amaranthus retroflexus ([5]; 10 g a.i./10a)	herbicidal efficacy (growth inhibition rate level), Chenopodium album ([6]; 5 g a.i./10a)	herbicidal efficacy (growth inhibition rate level), Chenopodium album ([6]; 10 g a.i./10a)	herbicidal efficacy (growth inhibition rate level), Digitaria ciliaris ([7]; 5 g a.i./10a)	herbicidal efficacy (growth inhibition rate level), Digitaria ciliaris ([7]; 10 g a.i./10a)	herbicidal efficacy (growth inhibition rate level), Amaranthus retroflexus ([8]; 5 g a.i./10a)	herbicidal efficacy (growth inhibition rate level), Amaranthus retroflexus ([8]; 10 g a.i./10a)	herbicidal efficacy (growth inhibition rate level), Chenopodium album ([9]; 5 g a.i./10a)	herbicidal efficacy (growth inhibition rate level), Chenopodium album ([9]; 10 g a.i./10a)	herbicidal efficacy (growth inhibition rate level), Digitaria ciliaris ([10]; 5 g a.i./10a)	herbicidal efficacy (growth inhibition rate level), Digitaria ciliaris ([10]; 10 g a.i./10a)	further results
N#Cc1cnn(-c2nn3c(c2Cl)CCCC3)c1NC(=O)CCl [Control Agent 1.9]	2 (2: 20% to less than 30%)	2 (2: 20% to less than 30%)	2 (2: 20% to less than 30%)	2 (2: 20% to less than 30%)	0 (0 (exponent): 0% to less than 10% (growth inhibition rate))	1 (1: 10% to less than 20%)	1 (1: 10% to less than 20%)	1 (1: 10% to less than 20%)	5 (5: 50% to less than 60%)	6 (6: 60% to less than 70%)	1 (1: 10% to less than 20%)	2 (2: 20% to less than 30%)	0 (0 (exponent): 0% to less than 10% (growth inhibition rate))	1 (1: 10% to less than 20%)	6 (6: 60% to less than 70%)	6 (6: 60% to less than 70%)	1 (1: 10% to less than 20%)	2 (2: 20% to less than 30%)	2 (2: 20% to less than 30%)	2 (2: 20% to less than 30%)	herbicidal efficacy (growth inhibition rate level), Digitaria ciliaris [11]: 1 (1: 10% to less than 20%); herbicidal efficacy (growth inhibition rate level), Galinsoga parviflora [12]: 5 (5: 50% to less than 60%)
N#Cc1cnn(-c2nn3c(c2Cl)CCCC3)c1NC(=O)CCCl [Control Agent 1.36]	2 (2: 20% to less than 30%)	4 (4: 40% to less than 50%)	3 (3: 30% to less than 40%)	4 (4: 40% to less than 50%)	1 (1: 10% to less than 20%)	3 (3: 30% to less than 40%)	2 (2: 20% to less than 30%)	3 (3: 30% to less than 40%)	4 (4: 40% to less than 50%)	5 (5: 50% to less than 60%)	4 (4: 40% to less than 50%)	4 (4: 40% to less than 50%)	3 (3: 30% to less than 40%)	4 (4: 40% to less than 50%)	5 (5: 50% to less than 60%)	6 (6: 60% to less than 70%)	4 (4: 40% to less than 50%)	4 (4: 40% to less than 50%)	2 (2: 20% to less than 30%)	3 (3: 30% to less than 40%)	herbicidal efficacy (growth inhibition rate level), Digitaria ciliaris [11]: 1 (1: 10% to less than 20%); herbicidal efficacy (growth inhibition rate level), Galinsoga parviflora [12]: 5 (5: 50% to less than 60%)
N#Cc1cnn(-c2nn3c(c2Cl)CCCC3)c1NC(=O)CCCCl [Control Agent 1.37]	3 (3: 30% to less than 40%)	3 (3: 30% to less than 40%)	2 (2: 20% to less than 30%)	4 (4: 40% to less than 50%)	1 (1: 10% to less than 20%)	2 (2: 20% to less than 30%)	2 (2: 20% to less than 30%)	2 (2: 20% to less than 30%)	5 (5: 50% to less than 60%)	6 (6: 60% to less than 70%)	4 (4: 40% to less than 50%)	5 (5: 50% to less than 60%)	3 (3: 30% to less than 40%)	4 (4: 40% to less than 50%)	6 (6: 60% to less than 70%)	7 (7: 70% to less than 80%)	4 (4: 40% to less than 50%)	5 (5: 50% to less than 60%)	3 (3: 30% to less than 40%)	4 (4: 40% to less than 50%)	herbicidal efficacy (growth inhibition rate level), Digitaria ciliaris [11]: 2 (2: 20% to less than 30%); herbicidal efficacy (growth inhibition rate level), Galinsoga parviflora [12]: 4 (4: 40% to less than 50%)
